Measured values published in ChEMBL document CHEMBL1132509, “Aminoisoquinolines: design and synthesis of an orally active benzamidine isostere for the inhibition of factor XA” (Bioorg Med Chem Lett, 1999).
One block for each molecule: values may come before it.

Tests used:
[1] = pKa value was determined.; assay type: physicochemical
Prothrombin = Prothrombin (Homo sapiens, UniProt P00734); experiment: In vitro evaluation of inhibitory activity against Coagulation factor II in prothrombinase complex
Coagulation factor X = Coagulation factor X (Bos taurus, UniProt P00743); experiment: In vitro evaluation of inhibitory activity against Coagulation factor X in prothrombinase complex
Chain of Coagulation factor X (P00743 41-180 limits assumed): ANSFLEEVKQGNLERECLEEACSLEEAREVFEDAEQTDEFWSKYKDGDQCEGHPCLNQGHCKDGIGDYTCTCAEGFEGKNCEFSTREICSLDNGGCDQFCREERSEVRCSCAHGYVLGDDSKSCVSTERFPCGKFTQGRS
Chain of Coagulation factor X (P00743 234-492 limits assumed): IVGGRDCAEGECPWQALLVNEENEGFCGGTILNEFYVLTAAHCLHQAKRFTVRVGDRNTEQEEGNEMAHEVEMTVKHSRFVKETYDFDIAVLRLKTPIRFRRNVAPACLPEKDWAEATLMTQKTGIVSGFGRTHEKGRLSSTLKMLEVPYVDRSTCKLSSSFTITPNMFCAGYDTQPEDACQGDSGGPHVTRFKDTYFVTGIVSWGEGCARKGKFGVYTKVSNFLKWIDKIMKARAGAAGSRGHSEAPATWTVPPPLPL

Serine protease 1 = Serine protease 1 (Homo sapiens, UniProt P07477); experiment: In vitro evaluation of inhibitory activity against trypsin
Chain of Serine protease 1 (P07477 whole entry): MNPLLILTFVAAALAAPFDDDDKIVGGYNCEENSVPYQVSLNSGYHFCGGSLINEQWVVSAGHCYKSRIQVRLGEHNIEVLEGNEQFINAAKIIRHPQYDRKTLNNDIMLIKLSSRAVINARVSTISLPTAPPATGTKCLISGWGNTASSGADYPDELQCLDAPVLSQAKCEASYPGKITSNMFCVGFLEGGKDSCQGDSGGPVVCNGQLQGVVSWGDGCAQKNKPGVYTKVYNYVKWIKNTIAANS

[2] = Maximum concentration in plasma was reported at 2 hour; assay type: ADME, organism-based; details: read-out: CPmax
[3] = Ratio inhibitory activity against coagulation factor IIa to that of factor Xa
[4] = Ratio of inhibitory activity against Plasmin to that of factor Xa
[5] = Ratio of inhibitory activity against activated protein C to that of factor Xa
[6] = Ratio of inhibitory activity against […] to that of factor Xa
[7] = Ratio of inhibitory activity against plasminogen activator to that of factor Xa
[8] = Maximum concentration in plasma was reported at 0.5 hour; assay type: ADME, organism-based; details: read-out: CPmax

Structure (SMILES): COc1ccc2ccc(S(=O)(=O)N(C)[C@H]3CCN(Cc4ccc5ncnc(N)c5c4)C3=O)cc2c1
pKa [1]: 5.3
Ki (Prothrombin): > 4 µM
Ki (Coagulation factor X): 1.6 µM
Ki (Serine protease 1): > 2.9 µM

Structure (SMILES): COc1ccc2ccc(S(=O)(=O)N[C@H]3CCN(Cc4cc(C(=N)N)ccc4N)C3=O)cc2c1
Ki (Coagulation factor X): 0.006 µM

Structure (SMILES): COc1ccc2ccc(S(=O)(=O)N[C@H]3CCN(Cc4cccc(C(=N)N)c4)C3=O)cc2c1
pKa [1]: 11.6
Ki (Serine protease 1): 0.85 µM

Structure (SMILES): Nc1nccc2ccc(CN3CC[C@H](NS(=O)(=O)c4cc5ncccc5s4)C3=O)cc12
Cmax [2]: 2700 nM
Ratio [3]: > 181
Ratio [4]: > 330
Ratio [5]: > 841
Ratio [6]: > 131
Ratio [7]: > 395

Structure (SMILES): N=C(N)c1cccc(CN2CC[C@H](NS(=O)(=O)c3cc4ncccc4s3)C2=O)c1
Ki (Coagulation factor X): 0.026 µM
Ratio [3]: > 150
Ratio [4]: > 280
Ratio [5]: 440
Ratio [6]: > 110
Ratio [7]: > 335

Structure (SMILES): COc1ccc2ccc(S(=O)(=O)N(C)[C@H]3CCN(Cc4csc(C(=N)N)c4)C3=O)cc2c1
Cmax [8]: 3100 nM

The remaining lines, values ahead:

Ki (Coagulation factor X): > 1.2 µM
Structure (SMILES): COc1ccc2ccc(S(=O)(=O)N[C@H]3CCN(Cc4ccc5ccnc(Cl)c5c4)C3=O)cc2c1

Ki (Coagulation factor X): > 1.2 µM
Structure (SMILES): COc1ccc2ccc(S(=O)(=O)N[C@H]3CCN(Cc4ccc5ccnc(O)c5c4)C3=O)cc2c1

pKa [1]: 7.6
Ki (Prothrombin): 1.35 µM
Ki (Serine protease 1): > 2.9 µM
Structure (SMILES): COc1ccc2ccc(S(=O)(=O)N[C@H]3CCN(Cc4ccc5ccnc(N)c5c4)C3=O)cc2c1

Ki (Coagulation factor X): 0.08 µM
Structure (SMILES): COc1ccc2ccc(S(=O)(=O)N[C@H]3CCN(Cc4cc5c(N)nccc5cc4N)C3=O)cc2c1

Ki (Prothrombin): ~4 µM
Ki (Coagulation factor X): 0.25 µM
Ki (Serine protease 1): > 2.9 µM
Structure (SMILES): COc1ccc2ccc(S(=O)(=O)NC3CCN(Cc4cc5c(N)nccc5s4)C3=O)cc2c1 (stereo not drawn)

Ki (Coagulation factor X): 0.89 µM
Structure (SMILES): COc1ccc2ccc(S(=O)(=O)N[C@H]3CCN(Cc4cc5c(N)nccc5cc4OC)C3=O)cc2c1

pKa [1]: 7.3
Ki (Prothrombin): ~4 µM
Ki (Coagulation factor X): 0.37 µM
Ki (Serine protease 1): > 2.9 µM
Structure (SMILES): COc1ccc2ccc(S(=O)(=O)NC3CCN(Cc4ccc5ccc(N)nc5c4)C3=O)cc2c1 (stereo not drawn)

pKa [1]: 7.3
Ki (Prothrombin): > 4 µM
Ki (Coagulation factor X): 1.2 µM
Ki (Serine protease 1): > 2.9 µM
Structure (SMILES): COc1ccc2ccc(S(=O)(=O)NC3CCN(Cc4ccc5nc(N)ccc5c4)C3=O)cc2c1 (stereo not drawn)
